Read-outs that look alike come from different tables or passages of the source.
Columns and labels:
[1] = tested on: cancer patients; conditions: 1-hr intravenous infusion every 3 weeks; cited from earlier work
[2] = tested on: rats; conditions: single or fractionated dose, intravenous; cited from earlier work
[3] = tested on: cancer patients; assay: phase II programme, 3 hour every 3 weeks schedule; type: in vivo, human
Description: (§1) Two schedules (24 hour every 3 weeks and 3 hour every 3 weeks) reached the phase II programme. The phase II programme confirmed the activity against soft tissue sarcoma and ovarian cancer. However, the recommended starting dose for the 3 hour schedule had to be reduced because of serious toxicity. The recommended dose for the 24 hour schedule was 1500 μg /m^2 and the recommended dose for the 3 hour schedule is at present 1300 μg/m^2.
Serious increases of transaminases (grade 3-4) were more frequent with the 3 hour schedule than with the 24 hour schedule. […] This toxicity has improved with the amendment that reduces the starting dose to 1300 (grade 3 and 4 ALT in 38% and 8.5% of patients), although it would be desirable to reduce it further. Cholestasis is less severe and less frequent observing grade 1, 2 and 3 alkaline phosphatase in 50.4%, 6.5% and 1.7% (leading to an overall 58.6% that compares similarly with 57.7% over 24 hours) of patients. […] An infrequent but important toxicity was the renal toxicity, represented by creatinine abnormalities, that is also higher than in the 24 hour schedule. […]

[4] = tested on: cancer patients; conditions: cited from earlier work
[5] = tested on: murine progenitor cells; conditions: cited from earlier work
[6] = tested on: human progenitor cells; conditions: cited from earlier work
[7] = tested on: cancer patients; conditions: cited from earlier work; remark: listed apart in the source
[8] = tested on: cancer patients; assay: phase II programme, 24 hour every 3 weeks schedule; type: in vivo, human
Description: as §1
The 3 hour every three weeks schedule has the signifcant advantage of being more confortable for the patient because it reduces the time being spent at the hospital for infusion and monitoring, in particular avoiding overnight stay.

[9] = tested on: soft tissue sarcoma cell lines; conditions: several soft tissue sarcoma cell lines; cited from earlier work
[10] = tested on: dogs; conditions: cited from earlier work
[11] = 3 hour infusion, worst grade per patient
[12] = Per patient (3 h), number (percent)
[13] = starting dose reduced to 1300, % of patients
[14] = 1 hr infusion days 1-5 every 3 weeks
[15] = 24 hour infusion, worst grade per patient
[16] = 24 h schedule every three weeks
[17] = Per patient (24 h), number (percent)

ecteinascidin 743 [ET-743]
maximum tolerated dose (MTD) [1]: 1100 μg/m^2
toxicity [2]: reversible hematological and hepatic toxicity
Alk Phosph, NCI-CTC Grade 1 [3, 11]: 115 (50.4) Number of patients (%)
Alk Phosph, NCI-CTC Grade 2 [3, 11]: 15 (6.5) Number of patients (%)
Alk Phosph, NCI-CTC Grade 3 [3, 11]: 4 (1.7) Number of patients (%)
Alk Phosph, NCI-CTC Grade 4 [3, 11]: 2 (0.8) Number of patients (%)
Bilirubin, NCI-CTC Grade 1 [3, 11]: 59 (25.8) Number of patients (%)
Bilirubin, NCI-CTC Grade 2 [3, 11]: 38 (16.6) Number of patients (%)
Bilirubin, NCI-CTC Grade 3 [3, 11]: 6 (2.6) Number of patients (%)
Bilirubin, NCI-CTC Grade 4 [3, 11]: 0 ^ Number of patients (%)
Hemoglobin, NCI-CTC Grade 0-1 [3, 11]: 132 (55) Number of patients (%)
Hemoglobin, NCI-CTC Grade 2 [3, 11]: 80 (33.4) Number of patients (%)
Hemoglobin, NCI-CTC Grade 3 [3, 11]: 23 (9.6) Number of patients (%)
Hemoglobin, NCI-CTC Grade 4 [3, 11]: 4 (1.6) Number of patients (%)
Neutrophils, NCI-CTC Grade 0-1 [3, 11]: 59 (24.5) Number of patients (%)
Neutrophils, NCI-CTC Grade 2 [3, 11]: 42 (17.4) Number of patients (%)
Neutrophils, NCI-CTC Grade 3 [3, 11]: 57 (23.6) Number of patients (%)
Neutrophils, NCI-CTC Grade 4 [3, 11]: 85 (35.2) Number of patients (%)
Platelets, NCI-CTC Grade 0-1 [3, 11]: 170 (69.1) Number of patients (%)
Platelets, NCI-CTC Grade 2 [3, 11]: 26 (10.6) Number of patients (%)
Platelets, NCI-CTC Grade 3 [3, 11]: 31 (12.6) Number of patients (%)
Platelets, NCI-CTC Grade 4 [3, 11]: 14 (5.6) Number of patients (%)
SGOT/AST, NCI-CTC Grade 1 [3, 11]: 17 (7.2) Number of patients (%)
SGOT/AST, NCI-CTC Grade 2 [3, 11]: 29 (12.3) Number of patients (%)
SGOT/AST, NCI-CTC Grade 3 [3, 11]: 117 (49.7) Number of patients (%)
SGOT/AST, NCI-CTC Grade 4 [3, 11]: 58 (24.6) Number of patients (%)
SGPT/ALT, NCI-CTC Grade 1 [3, 11]: 13 (5.5) Number of patients (%)
SGPT/ALT, NCI-CTC Grade 2 [3, 11]: 19 (8.1) Number of patients (%)
SGPT/ALT, NCI-CTC Grade 3 [3, 11]: 107 (45.7) Number of patients (%)
SGPT/ALT, NCI-CTC Grade 4 [3, 11]: 87 (37.1) Number of patients (%)
Increased transaminases (grade 3-4), cycles ([3]; 3 hour schedule, % of cycles): 58.3%
Grades 1-3 of bilirubin ([3]; 3 hour schedule, % of patients): 45%
Increased transaminases (grade 3-4), patients ([3]; 3 hour schedule, % of patients): 83.4%
alkaline phosphatase overall ([3]; 3 hour schedule, % of patients): 58.6%
grade 1 alkaline phosphatase ([3]; 3 hour schedule, % of patients): 50.4%
grade 2 alkaline phosphatase ([3]; 3 hour schedule, % of patients): 6.5%
grade 3 alkaline phosphatase ([3]; 3 hour schedule, % of patients): 1.7%
recommended dose ([3]; 3 hour schedule, at present (reduced)): 1300 μg/m^2
Grade 3-4 ALT ([3]; 3 h schedule every three weeks): 82.8%
Grade 3-4 Bilirubin ([3]; 3 h schedule every three weeks): 2.6%
Grade 3-4 Creatinine ([3]; 3 h schedule every three weeks): 2.3%
Grade 3-4 Creatinine Kinase ([3]; 3 h schedule every three weeks): 1.5%
Grade 3-4 Hemoglobin ([3]; 3 h schedule every three weeks): 11.3%
Grade 3-4 Neutrophils ([3]; 3 h schedule every three weeks): 58.3%
Grade 3-4 Platelets ([3]; 3 h schedule every three weeks): 18.7%
Creatinine abnormalities, NCI-CTC Grade 1 [3, 12]: 44 (20.1)
Creatinine abnormalities, NCI-CTC Grade 2 [3, 12]: 10 (4.6)
Creatinine abnormalities, NCI-CTC Grade 3 [3, 12]: 5 (2.3)
Creatinine abnormalities, NCI-CTC Grade 4 [3, 12]: 0 ^
grade 3 ALT [3, 13]: 38%
grade 4 ALT [3, 13]: 8.5%
MTD ([4]; 72 hr infusion every 3 weeks): 1200 μg/M^2
RD ([4]; 72 hr infusion every 3 weeks): 1050 μg/M^2
reversible grade 4 transaminases elevation ([4]; at 1200 μg/M^2 (MTD)): 2 out of 9
grade 3 hypertransaminasemia ([4]; at the RD (1050 μg/M^2), % of patients): 50%
grade 4 hypertransaminasemia ([4]; at the RD (1050 μg/M^2)): there was not any grade 4 hypertransaminasemia
sensitivity of progenitor cells [5]: equal sensitivity of erythropoid and myeloid cells
sensitivity of progenitor cells [6]: equal sensitivity of erythropoid and myeloid cells
MTD [7, 14]: 380 μg/m^2/day
RD [7, 14]: 325 μg/m^2/day
cycles delayed ([7]; at 325 μg/m^2/day (RD)): 59%
median day of recovery to grade 1 for neutropenia ([7]; at 325 μg/m^2/day (RD)): 28 days
patients who developed DLT ([7]; at 380 μg/m^2/day (MTD)): 3 patients
Reversible grade 3 transaminases, cycles ([7]; at the recommended dose, % of cycles): 14%
Reversible grade 3 transaminases, patients ([7]; at the recommended dose, % of patients): 31%
Alk Phosph, NCI-CTC Grade 1 [8, 15]: 149 (46.7) Number of patients (%)
Alk Phosph, NCI-CTC Grade 2 [8, 15]: 29 (9.1) Number of patients (%)
Alk Phosph, NCI-CTC Grade 3 [8, 15]: 6 (1.9) Number of patients (%)
Bilirubin, NCI-CTC Grade 1 [8, 15]: 49 (15.3) Number of patients (%)
Bilirubin, NCI-CTC Grade 2 [8, 15]: 23 (6.9) Number of patients (%)
Bilirubin, NCI-CTC Grade 3 [8, 15]: 4 (1.3) Number of patients (%)
Gamma GT, NCI-CTC Grade 1 [8, 15]: 25 (22.9) Number of patients (%)
Gamma GT, NCI-CTC Grade 2 [8, 15]: 29 (26.6) Number of patients (%)
Gamma GT, NCI-CTC Grade 3 [8, 15]: 32 (29.4) Number of patients (%)
Gamma GT, NCI-CTC Grade 4 [8, 15]: 2 (1.8) Number of patients (%)
Hemoglobin, NCI-CTC Grade 0-1 [8, 15]: 165 (51.6) Number of patients (%)
Hemoglobin, NCI-CTC Grade 2 [8, 15]: 111 (34.7) Number of patients (%)
Hemoglobin, NCI-CTC Grade 3 [8, 15]: 33 (10.3) Number of patients (%)
Hemoglobin, NCI-CTC Grade 4 [8, 15]: 11 (3.4) Number of patients (%)
Neutrophils, NCI-CTC Grade 0-1 [8, 15]: 103 (32.3) Number of patients (%)
Neutrophils, NCI-CTC Grade 2 [8, 15]: 54 (16.9) Number of patients (%)
Neutrophils, NCI-CTC Grade 3 [8, 15]: 92 (28.8) Number of patients (%)
Neutrophils, NCI-CTC Grade 4 [8, 15]: 70 (21.9) Number of patients (%)
Platelets, NCI-CTC Grade 0-1 [8, 15]: 260 (81.5) Number of patients (%)
Platelets, NCI-CTC Grade 2 [8, 15]: 17 (5.3) Number of patients (%)
Platelets, NCI-CTC Grade 3 [8, 15]: 35 (11.0) Number of patients (%)
Platelets, NCI-CTC Grade 4 [8, 15]: 7 (2.2) Number of patients (%)
SGOT/AST, NCI-CTC Grade 1 [8, 15]: 74 (23.2) Number of patients (%)
SGOT/AST, NCI-CTC Grade 2 [8, 15]: 88 (27.6) Number of patients (%)
SGOT/AST, NCI-CTC Grade 3 [8, 15]: 120 (37.6) Number of patients (%)
SGOT/AST, NCI-CTC Grade 4 [8, 15]: 16 (5.0) Number of patients (%)
SGPT/ALT, NCI-CTC Grade 1 [8, 15]: 62 (19.4) Number of patients (%)
SGPT/ALT, NCI-CTC Grade 2 [8, 15]: 83 (25.9) Number of patients (%)
SGPT/ALT, NCI-CTC Grade 3 [8, 15]: 127 (39.7) Number of patients (%)
SGPT/ALT, NCI-CTC Grade 4 [8, 15]: 30 (9.4) Number of patients (%)
recommended dose ([8]; 24 hour schedule, phase II): 1500 μg /m^2
Grade 3-4 ALT [8, 16]: 49.1%
Grade 3-4 Bilirubin [8, 16]: 1.3%
Grade 3-4 Creatinine [8, 16]: 0.7%
Grade 3-4 Creatinine Kinase [8, 16]: 2.2%
Grade 3-4 Hemoglobin [8, 16]: 13.7%
Grade 3-4 Neutrophils [8, 16]: 50.7%
Grade 3-4 Platelets [8, 16]: 13.2%
Creatinine abnormalities, NCI-CTC Grade 1 [8, 17]: 76 (23.9)
Creatinine abnormalities, NCI-CTC Grade 2 [8, 17]: 19 (6.0)
Creatinine abnormalities, NCI-CTC Grade 3 [8, 17]: 3 (0.9)
Creatinine abnormalities, NCI-CTC Grade 4 [8, 17]: 2 (0.6)
Grades 1-3 of bilirubin ([8]; over 24 hours, % of patients): 23.8%
alkaline phosphatase overall ([8]; over 24 hours, % of patients): 57.7%
IC50 [9]: < 1 pM
further toxicity in dogs ([10]; following administration): vomiting and diarrhoea
toxicity ([10]; single or fractionated dose, intravenous, dogs): reversible hematological and hepatic toxicity

— US20050004018A1, “Use of antitumoral compound in cancer therapy” (priority 2001, published 2005)
